Patent publication US11633454B2, “Compositions and methods for treating metabolic diseases” (SHANGHAI HEP PHARMACEUTICAL CO., LTD., priority 2016, dated 2023)

What was measured:
[1] = system: hyperlipidemic golden hamsters; test: Hyperlipidemic golden hamster model, 4 weeks of treatment; type: in vivo; conditions: 50 mg/kg FENO po
[2] = system: Zucker Diabetic Fatty (ZDF) rats; test: Zucker Diabetic Fatty (ZDF) rats, 4 weeks of treatment (GLU, HbA1c, insulin, TC, TG, BUN, organ index, TBA); type: in vivo, rat
[3] = biological target: T1, NTCP (Homo sapiens, UniProt Q14973); test: In vitro bile acids assay (3H-TA uptake by NTCP-293 cells)
T1 sequence (Q14973 1-349): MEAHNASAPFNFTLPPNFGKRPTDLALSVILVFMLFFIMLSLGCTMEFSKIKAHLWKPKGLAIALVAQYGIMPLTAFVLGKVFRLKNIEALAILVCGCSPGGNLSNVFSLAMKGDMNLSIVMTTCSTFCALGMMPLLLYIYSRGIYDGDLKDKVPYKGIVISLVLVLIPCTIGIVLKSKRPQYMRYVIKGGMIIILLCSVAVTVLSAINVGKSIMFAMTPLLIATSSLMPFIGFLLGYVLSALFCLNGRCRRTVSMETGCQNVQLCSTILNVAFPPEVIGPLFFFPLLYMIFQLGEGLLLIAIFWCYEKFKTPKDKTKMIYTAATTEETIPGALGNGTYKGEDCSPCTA

[4] = 300 mg/kg Met, 2 weeks of dosing
[5] = 300 mg/kg Met, 4 weeks of dosing
[6] = ZDF rats, after 4 weeks of treatment, 300 mg/kg Met oral gavage, mean ± SEM

**Q.** How did the “Serum TC (χ ± S)” value ([1]; 2 w of dosing) turn out when `CC(C)OC(=O)C(C)(C)Oc1ccc(C(=O)c2ccc(Cl)cc2)cc1` [FENO, Fenofibrate] was run?
**A.** Its value is 6.63 ± 4.40 mmol/L.

**Q.** What about the “Serum TG (χ ± S)” value ([1]; 2 w of dosing) of the same compound?
**A.** The value was 3.14 ± 0.4 mmol/L.

**Q.** And the “Serum TC (χ ± S)” value ([1]; 4 w of dosing)?
**A.** The value was 7.42 ± 1.70 mmol/L.

**Q.** And the “Serum TG (χ ± S)” value ([1]; 4 w of dosing)?
**A.** Its value is 2.68 ± 0.30 mmol/L.

**Q.** And the “Serum HDL-C” value ([1]; 4 weeks post the treatment)?
**A.** The value was 3.13 ± 0.30 mmol/L.

**Q.** What about the “Serum LDL-C” value ([1]; 4 weeks post the treatment) of the same compound?
**A.** Its value is 1.88 ± 0.40 mmol/L.

**Q.** What about the “AI (atherosclerosis index)” value ([1]; 4 weeks, AI=(TC−HDL-C)/HDL-C) of the same compound?
**A.** Its value is 1.36 ± 0.38.

**Q.** And the “Serum TC (χ ± S)” value ([1]; before dosing)?
**A.** The value was 11.34 ± 0.50 mmol/L.

**Q.** What about the “Serum TG (χ ± S)” value ([1]; before dosing) of the same compound?
**A.** The value was 6.16 ± 1.30 mmol/L.

**Q.** Which “Fasting serum GLU (χ ± SEM)” value ([2]; 300 mg/kg Met oral gavage, 2 weeks of dosing) does the source give for `CN(C)C(=N)N=C(N)N` [Met, Metformin] here?
**A.** The value was 7.98 ± 1.02 mmol/L.

**Q.** And the “Fasting serum GLU (χ ± SEM)” value ([2]; 300 mg/kg Met oral gavage, 4 weeks of dosing)?
**A.** The value was 8.35 ± 0.58 mmol/L.

**Q.** What about the “Fasting serum GLU (χ ± SEM)” value ([2]; 300 mg/kg Met oral gavage, week 0) of the same compound?
**A.** The value was 9.71 ± 0.96 mmol/L.

**Q.** What about the Serum BUN (χ ± SEM) [2, 4] of the same compound?
**A.** Its Serum BUN (χ ± SEM) is 6.58 ± 0.52 mM.

**Q.** And the Serum TC (χ ± SEM) [2, 4]?
**A.** Its Serum TC (χ ± SEM) is 5.24 ± 0.35 mM.

**Q.** What about the “HbA1c level (χ ± SEM)” value [2, 5] of the same compound?
**A.** The value was 5.07 ± 0.23 %.

**Q.** And the Serum BUN (χ ± SEM) [2, 5]?
**A.** Its Serum BUN (χ ± SEM) is 7.09 ± 0.36 mM.

**Q.** What about the Serum TC (χ ± SEM) [2, 5] of the same compound?
**A.** The Serum TC (χ ± SEM) was 6.95 ± 0.54 mM.

**Q.** What about the “HbA1c level (χ ± SEM)” value ([2]; 300 mg/kg Met, week 0) of the same compound?
**A.** Its value is 6.25 ± 0.31%.

**Q.** And the Serum BUN (χ ± SEM) ([2]; 300 mg/kg Met, week 0)?
**A.** The Serum BUN (χ ± SEM) was 5.52 ± 0.21 mM.

**Q.** And the Serum TC (χ ± SEM) ([2]; 300 mg/kg Met, week 0)?
**A.** The Serum TC (χ ± SEM) was 3.82 ± 0.11 mM.

**Q.** What about the “Serum insulin (χ ± SEM)” value ([2]; 300 mg/kg Met, week 0) of the same compound?
**A.** Its value is 6.74 ± 0.62 ng/mL.

**Q.** And the “Heart index (HI) vs model controls” value ([2]; MET 300 mg/kg, 4 weeks, FIG. 27A)?
**A.** The value was “had no effect on the HI values”.

**Q.** What about the “Total fat index (TFI) vs model controls” value ([2]; MET 300 mg/kg, 4 weeks, FIG. 27C) of the same compound?
**A.** Its value is “appeared to increase the TFI values”.

**Q.** What about the “Fasting serum GLU” value ([2]; MET positive control in the experiment with additional polypeptides, FIGS. 18A, 18B) of the same compound?
**A.** Its value is “significantly decreased fasting serum GLU”.

**Q.** What about the Serum TBA level after weeks of dosing ([2]; ZDF rats, 300 mg/kg Met, week 0, mean ± SEM) of the same compound?
**A.** Its Serum TBA level after weeks of dosing is 32.8 ± 12.3 µM.

**Q.** And the Serum TBA level after weeks of dosing ([2]; ZDF rats, 300 mg/kg Met, week 2, mean ± SEM)?
**A.** Its Serum TBA level after weeks of dosing is 82.5 ± 27 µM.

**Q.** And the Serum TBA level after weeks of dosing ([2]; ZDF rats, 300 mg/kg Met, week 4, mean ± SEM)?
**A.** Its Serum TBA level after weeks of dosing is 83 ± 15.8 µM.

**Q.** What about the Heart index [2, 6] of the same compound?
**A.** Its Heart index is 3.63 ± 0.24 g/kg.

**Q.** And the Kidney index [2, 6]?
**A.** Its Kidney index is 7.26 ± 0.55 g/kg.

**Q.** What about the Total fat index [2, 6] of the same compound?
**A.** The Total fat index was 94.64 ± 3.79 g/kg.

**Q.** How did the “Effect on TA absorption” value ([3]; 0.1 μmol/L, FIG. 5E) turn out when `C=C[C@H]1C[N@@]2CC[C@H]1C[C@@H]2[C@@H](O)c1ccnc2ccc(OC)cc12` [quinidine] was run?
**A.** The value was “enhanced TA absorption”.

**Q.** And the “Effect on TA absorption” value ([3]; 20 μmol/L, FIG. 5F)?
**A.** Its value is “enhanced TA absorption”.
